Entries after “also recorded” stand apart in the source; their conditions may differ.
Columns and labels:
AKT1 = target: T1, AKT1 (Homo sapiens, UniProt P31749); experiment: Z'-LYTE assay (AKT binding assay), AKT1; details: 10-point dose response, Km ATP, read-out: Biochemical Binding AKT1
T1 construct: purchased Life Technologies (Invitrogen)
Description: (§1) Z′-LYTE assays (catalog number PV3193, Invitrogen™) were conducted for AKT1, AKT2, AKT3, PKG1, S6K1, PKN1, βMSK2, and Haspin at Life Technologies™ in a 10-point dose response using Km ATP concentrations. LanthaScreen™ assays were conducted for RET (V804M) in a 10-point dose response at Life Technologies™.

ZR-75-1 cells = experiment: Growth inhibition rate (GR) assay in ZR-75-1 cells; type: cell-based; details: 72-hour treatment (FIG. 6A)
From the text: FIG. 6A-FIG. 6F are a set of graphs that show growth inhibition rate (GR) values across concentrations in ZR-75-1 (FIG. 6A), T47D (FIG. 6B), LNCaP (FIG. 6C), MCF-7 (FIG. 6D), MDA-MB-468 (FIG. 6E), and HCC1937 (FIG. 6F) cells after 72-hour treatment with GDC-0068 (blue), inventive bifunctional compound 10 (red), bifunctional compound 10-Me (negative control) (green), and lenalidomide (orange). Error bars represent the standard deviation of three technical replicates.

AKT2 = target: T2, AKT2 (Homo sapiens, UniProt P31751); experiment: Z'-LYTE assay (AKT binding assay), AKT2; details: 10-point dose response, Km ATP, read-out: Biochemical Binding AKT2
T2 construct: purchased Life Technologies (Invitrogen)
T2 sequence (P31751 whole entry): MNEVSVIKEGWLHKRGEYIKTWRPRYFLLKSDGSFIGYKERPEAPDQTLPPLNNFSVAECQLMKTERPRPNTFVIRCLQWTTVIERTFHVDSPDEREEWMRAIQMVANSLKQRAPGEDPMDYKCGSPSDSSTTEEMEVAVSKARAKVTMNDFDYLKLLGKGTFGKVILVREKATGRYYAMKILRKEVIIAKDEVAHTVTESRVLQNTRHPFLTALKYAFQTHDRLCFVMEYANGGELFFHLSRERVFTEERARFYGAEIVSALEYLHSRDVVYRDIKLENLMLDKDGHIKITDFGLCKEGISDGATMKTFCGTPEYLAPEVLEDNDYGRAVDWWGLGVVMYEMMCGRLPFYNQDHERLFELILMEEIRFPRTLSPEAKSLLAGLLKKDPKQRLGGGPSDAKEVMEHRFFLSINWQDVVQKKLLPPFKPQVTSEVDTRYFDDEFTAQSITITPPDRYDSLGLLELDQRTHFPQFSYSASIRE
Description: as §1

AKT3 = target: T3, AKT3 (Homo sapiens, UniProt Q9Y243); experiment: Z'-LYTE assay (AKT binding assay), AKT3; details: 10-point dose response, Km ATP, read-out: Biochemical Binding AKT3
T3 construct: purchased Life Technologies (Invitrogen)
T3 sequence (Q9Y243 whole entry): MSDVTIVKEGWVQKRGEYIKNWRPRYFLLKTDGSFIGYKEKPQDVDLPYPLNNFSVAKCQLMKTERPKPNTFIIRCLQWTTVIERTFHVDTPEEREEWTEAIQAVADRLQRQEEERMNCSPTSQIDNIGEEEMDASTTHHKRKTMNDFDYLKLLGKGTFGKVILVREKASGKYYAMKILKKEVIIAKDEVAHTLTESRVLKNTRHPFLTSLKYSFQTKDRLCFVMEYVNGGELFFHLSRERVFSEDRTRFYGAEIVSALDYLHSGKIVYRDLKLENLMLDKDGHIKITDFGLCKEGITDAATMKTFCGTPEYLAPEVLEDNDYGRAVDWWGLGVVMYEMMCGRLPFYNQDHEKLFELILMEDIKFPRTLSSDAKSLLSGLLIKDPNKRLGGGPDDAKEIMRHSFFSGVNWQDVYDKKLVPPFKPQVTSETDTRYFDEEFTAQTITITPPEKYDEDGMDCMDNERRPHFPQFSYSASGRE
Description: as §1

AKT1, AKT2 and AKT3 [1] = experiment: Immunoblot of AKT isoform degradation in MDA-MB-468 cells; type: cell-based, human; details: 24-hour treatment
Description: (§2) MDA-MB-468 (human breast cancer cell line) cells were maintained in RPMI 1640 (Wisent Bioproducts) supplemented with 10% FBS (Thermo Fisher Scientific) and MCF10A (human breast epithelial cell line) cells were maintained in Dulbecco's modified Eagle's medium (DMEM)/Ham's F12 (Wisent Bioproducts) supplemented with 5% equine serum (Fisher), insulin (10 μg/ml) (Life Technologies), hydrocortisone (500 ng/ml) (Sigma-Aldrich®), epidermal growth factor (20 ng/ml) (R&D Systems), and cholera toxin (100 ng/ml) (List Biological Lab). MDA-MB-468 and MCF10A cells were seeded at 250,000 cells/mL and 200,000 cells/mL, respectively. The following day cells were treated with inventive bifunctional compounds. After 24 hours, cells were washed with phosphate-buffered saline at 4° C. and lysed in radioimmunoprecipitation assay (RIPA) buffer (150 mM Tris-HCl, 150 mM NaCl, 0.5% (w/v) sodium deoxycholate, 1% (v/v) NP-40, pH 7.5) containing 0.1% (w/v) sodium dodecyl sulfate, 1 mM sodium pyrophosphate, 20 mM sodium fluoride, 50 nM calyculin, and 0.5% (v/v) protease inhibitor cocktail (Sigma-Aldrich®)). Cell extracts were precleared by centrifugation at 14,000 rpm for 10 minutes at 4° C. The Bio-Rad DC protein assay was used to assess protein concentration, and sample concentration was normalized using SDS sample buffer. […] Images were stored and analyzed using ImageStudio™ (LI-COR®) software. […]

AKT1, AKT2 and AKT3 [2] = experiment: Immunoblot of AKT isoform degradation in MCF10A cells; type: cell-based, human; details: 24-hour treatment
Description: as §2

T1 sequence (P31749 whole entry): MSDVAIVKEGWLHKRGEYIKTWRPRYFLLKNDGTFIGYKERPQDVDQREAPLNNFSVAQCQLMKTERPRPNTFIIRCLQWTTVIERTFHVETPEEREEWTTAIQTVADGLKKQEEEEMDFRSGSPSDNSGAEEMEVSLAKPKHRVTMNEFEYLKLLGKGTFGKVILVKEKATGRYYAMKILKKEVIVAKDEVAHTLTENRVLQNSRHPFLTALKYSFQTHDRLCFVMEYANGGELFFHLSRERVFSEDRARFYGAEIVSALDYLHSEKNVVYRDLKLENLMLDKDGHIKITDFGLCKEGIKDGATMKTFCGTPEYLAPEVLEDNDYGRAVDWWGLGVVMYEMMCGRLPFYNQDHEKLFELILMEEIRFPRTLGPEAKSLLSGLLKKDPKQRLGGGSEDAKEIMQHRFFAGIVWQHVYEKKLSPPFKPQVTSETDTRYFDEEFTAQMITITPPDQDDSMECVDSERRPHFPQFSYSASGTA

Row | SMILES | IC50 (AKT1) [nM] | IC50 (AKT2) [nM] | IC50 (AKT3) [nM] | other results
1 | C[C@@H]1C[C@@H](O)c2ncnc(N3CCN(C(=O)[C@H](CNCCCCCCCCC#Cc4cccc5c4CN(C4CCC(=O)NC4=O)C5=O)c4ccc(Cl)cc4)CC3)c21 (stereo partly drawn) [Compound 7, 3-(4-(10-(((S)-2-(4-chlorophenyl)-3-(4-((5R,7R)-7-hydroxy-5-methyl-6,7-dihydro-5H-cyclopenta[d]pyrimidin-4-yl)piperazin-1-yl)-3-oxopropyl)amino)dec-1-yn-1-yl)-1-oxoisoindolin-2-yl)piperidine-2,6-dione] | 2.46 |  |  | 
2 | C[C@@H]1C[C@@H](O)c2ncnc(N3CCN(C(=O)[C@H](CNCCCCCCCCCCc4cccc5c4CN(C4CCC(=O)N(C)C4=O)C5=O)c4ccc(Cl)cc4)CC3)c21 (stereo partly drawn) [Compound 10-Me, 3-(4-(10-(((S)-2-(4-chlorophenyl)-3-(4-((5R,7R)-7-hydroxy-5-methyl-6,7-dihydro-5H-cyclopenta[d]pyrimidin-4-yl)piperazin-1-yl)-3-oxopropyl)amino)decyl)-1-oxoisoindolin-2-yl)-1-methylpiperidine-2,6-dione] |  |  |  | Anti-proliferative potency relative to compound 10 (ZR-75-1 cells): significantly less potent; GR50 (ZR-75-1 cells; Homo sapiens, read-out: GR50): 413 nM
3 | C[C@@H]1C[C@@H](O)c2ncnc(N3CCN(C(=O)[C@H](CNCCCCc4cccc5c4C(=O)N(C4CCC(=O)NC4=O)C5=O)c4ccc(Cl)cc4)CC3)c21 (stereo partly drawn) [Compound 9, 4-(4-(((S)-2-(4-chlorophenyl)-3-(4-((5R,7R)-7-hydroxy-5-methyl-6,7-dihydro-5H-cyclopenta[d]pyrimidin-4-yl)piperazin-1-yl)-3-oxopropyl)amino)butyl)-2-(2,6-dioxopiperidin-3-yl)isoindoline-1,3-dione] | 1.8 |  |  | 
4 | C[C@@H]1C[C@@H](O)c2ncnc(N3CCN(C(=O)[C@H](CNCCOCCNC(=O)COc4cccc5c4C(=O)N(C4CCC(=O)NC4=O)C5=O)c4ccc(Cl)cc4)CC3)c21 (stereo partly drawn) [Compound 5, N-(2-(2-(((S)-2-(4-chlorophenyl)-3-(4-((5R,7R)-7-hydroxy-5-methyl-6,7-dihydro-5H-cyclopenta[d]pyrimidin-4-yl)piperazin-1-yl)-3-oxopropyl)amino)ethoxy)ethyl)-2-((2-(2,6-dioxopiperidin-3-yl)-1,3-dioxoisoindolin-4-yl)oxy)acetamide] | 3.4 |  |  | 
5 | Cc1ncsc1-c1ccc([C@H](C)NC(=O)[C@@H]2C[C@@H](O)CN2C(=O)[C@@H](NC(=O)CCOCCOCCNC[C@@H](C(=O)N2CCN(c3ncnc4c3[C@H](C)C[C@H]4O)CC2)c2ccc(Cl)cc2)C(C)(C)C)cc1 [Compound 6, (2S,4R)-1-((2S,15S)-2-(tert-butyl)-15-(4-chlorophenyl)-16-(4-((5R,7R)-7-hydroxy-5-methyl-6,7-dihydro-5H-cyclopenta[d]pyrimidin-4-yl)piperazin-1-yl)-4,16-dioxo-7,10-dioxa-3,13-diazahexadecanoyl)-4-hydroxy-N—((S)-1-(4-(4-methylthiazol-5-yl)phenyl)ethyl)pyrrolidine-2-carboxamide] | 3.8 |  |  | 
6 | C[C@@H]1C[C@@H](O)c2ncnc(N3CCN(C(=O)[C@H](CNCCOCCOCCNC(=O)COc4cccc5c4C(=O)N(C4CCC(=O)NC4=O)C5=O)c4ccc(Cl)cc4)CC3)c21 (stereo partly drawn) [Compound 4, N-(2-(2-(2-(((S)-2-(4-chlorophenyl)-3-(4-((5R,7R)-7-hydroxy-5-methyl-6,7-dihydro-5H-cyclopenta[d]pyrimidin-4-yl)piperazin-1-yl)-3-oxopropyl)amino)ethoxy)ethoxy)ethyl)-2-((2-(2,6-dioxopiperidin-3-yl)-1,3-dioxoisoindolin-4-yl)oxy)acetamide] | 6.97 |  |  | 
7 | Cc1ncsc1-c1ccc([C@H](C)NC(=O)[C@@H]2C[C@@H](O)CN2C(=O)[C@@H](NC(=O)CCOCCCNC[C@@H](C(=O)N2CCN(c3ncnc4c3[C@H](C)CC4)CC2)c2ccc(Cl)cc2)C(C)(C)C)cc1 [Compound 1, (2S,4R)-1-((S)-2-(3-(3-(((S)-2-(4-chlorophenyl)-3-(4-((R)-5-methyl-6,7-dihydro-5H-cyclopenta[d]pyrimidin-4-yl)piperazin-1-yl)-3-oxopropyl)amino)propoxy)propanamido)-3,3-dimethylbutanoyl)-4-hydroxy-N—((S)-1-(4-(4-methylthiazol-5-yl)phenyl)ethyl)pyrrolidine-2-carboxamide] | 1.58 | 15.1 | 4.94 | Degradation of AKT isoforms (AKT1, AKT2 and AKT3 [1]): degraded in MDA-MB-468 cells in a dose-dependent manner; also recorded: degraded in MDA-MB-468 cells (FIG. 3); Degradation of AKT isoforms (AKT1, AKT2 and AKT3 [2]): degraded in MCF10A cells in a dose-dependent manner
8 | C[C@@H]1C[C@@H](O)c2ncnc(N3CCN(C(=O)[C@H](CNCCCNC(=O)COc4cccc5c4C(=O)N(C4CCC(=O)NC4=O)C5=O)c4ccc(Cl)cc4)CC3)c21 (stereo partly drawn) [Compound 2, N-(3-(((S)-2-(4-chlorophenyl)-3-(4-((5R,7R)-7-hydroxy-5-methyl-6,7-dihydro-5H-cyclopenta[d]pyrimidin-4-yl)piperazin-1-yl)-3-oxopropyl)-amino)propyl)-2-((2-(2,6-dioxopiperidin-3-yl)-1,3-dioxoisoindolin-4-yl)oxy) acetamide] | 3.93 | 31.4 | 20.4 | 
9 | C[C@@H]1C[C@@H](O)c2ncnc(N3CCN(C(=O)[C@H](CNCCCCCCCCNC(=O)COc4cccc5c4C(=O)N(C4CCC(=O)NC4=O)C5=O)c4ccc(Cl)cc4)CC3)c21 (stereo partly drawn) [Compound 3, N-(8-(((S)-2-(4-chlorophenyl)-3-(4-((5R,7R)-7-hydroxy-5-methyl-6,7-dihydro-5H-cyclopenta[d]pyrimidin-4-yl)piperazin-1-yl)-3-oxopropyl)amino)octyl)-2-((2-(2,6-dioxopiperidin-3-yl)-1,3-dioxoisoindolin-4-yl)oxy)acetamide] | 1.03 | 4.04 | 1.23 | Degradation of AKT isoforms (AKT1, AKT2 and AKT3 [1]): degraded in MDA-MB-468 cells in a dose-dependent manner; also recorded: degraded in MDA-MB-468 cells (FIG. 3); Degradation of AKT isoforms (AKT1, AKT2 and AKT3 [2]): degraded in MCF10A cells in a dose-dependent manner
